Results from patent publication US6342519B2, “Oxetanone derivatives” (2 Pro Chemical, priority 1999, dated 2002).

Tests used:
[1] = test system: absorption of dietary fat; conditions: 120 mg dose taken before, or up to one hour after, a fat-containing meal; average person; cited from earlier work
[2] = biological target: T1, human lipase (Homo sapiens, UniProt P16233); assay: Lipase inhibition assay, Lipase #1 solution (Aldrich Lipase PS Standard); assay type: biochemical; conditions: Lipase #1 (human lipase), 20 mL of compound stock solution in 0.2 N HCl, Sigma Lipase Substrate, pH about 8, 30 minutes, 35-37° C., titration with 0.025 N NaOH, two runs
T1 construct: purchased Aldrich Product No. 8054
T1 sequence (P16233 17-465): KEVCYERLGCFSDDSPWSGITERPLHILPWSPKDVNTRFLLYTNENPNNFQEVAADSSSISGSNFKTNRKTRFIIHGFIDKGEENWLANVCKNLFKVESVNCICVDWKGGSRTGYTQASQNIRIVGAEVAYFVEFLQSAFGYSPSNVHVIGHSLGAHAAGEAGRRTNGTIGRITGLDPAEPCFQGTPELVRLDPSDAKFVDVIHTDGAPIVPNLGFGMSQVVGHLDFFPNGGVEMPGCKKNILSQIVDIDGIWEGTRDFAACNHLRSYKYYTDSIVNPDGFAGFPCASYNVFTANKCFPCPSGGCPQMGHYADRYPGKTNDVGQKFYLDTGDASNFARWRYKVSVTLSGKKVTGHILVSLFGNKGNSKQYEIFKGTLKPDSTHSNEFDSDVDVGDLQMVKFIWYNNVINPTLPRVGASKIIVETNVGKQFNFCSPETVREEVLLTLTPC
Method: (§1) Lipase inhibition assays were performed essentially as follows using each of Compounds A and B.
(§2) A 1 L stock solution of 1N NaOH was made and a 500 mL stock solution of 0.025 N NaOH was made by diluting a portion of the stock 1N solution. Also a stock solution of 0.2 N HCl was made. A 100 mL TRIZMA solution (from Aldrich Lipase Assay Kit Cat. No. 800B) was diluted with 100 mL of denatured EtOH and 300 mL of water to form a 500 mL TEW solution. Compound A from Example 6 (100 mg) was added to a portion of the 0.2 N HCl stock solution and diluted to a final volume of 300 mL with the same HCl stock solution to form a compound A stock solution. […]
(§3) In a 500 mL beaker equipped with a heat source and a magnetic stirrer was added 100 mL of distilled water, 10 mL of TEW solution, 10 mL of Sigma Lipase Substrate and a 20 mL sample (sample control was 20 mL of the stock 0.2 N HCl solution, sample A was 20 mL of the compound A stock solution, and sample B was 20 mL of the compound B stock solution). The pH was adjusted to about 8 with 1N NaOH using a pH meter, whose reading was noted and recorded as a baseline reading after the pH adjustment. […] The volume of NaOH solution used to return to the baseline pH reading was noted and recorded. […]

[3] = biological target: T2, Pork Pancreas Lipase [EC 3.1.1.3] (Sus scrofa, UniProt P00591); assay: Lipase inhibition assay, Lipase #2 solution (Aldrich Pork Pancreas Lipase); assay type: biochemical; conditions: Lipase #2 (pork pancreas lipase), 20 mL of compound stock solution in 0.2 N HCl, Sigma Lipase Substrate, pH about 8, 30 minutes, 35-37° C., titration with 0.025 N NaOH, two runs
T2 construct: purchased Aldrich Product No. 32313; host or cells: pork pancreas
T2 sequence (P00591 1-450): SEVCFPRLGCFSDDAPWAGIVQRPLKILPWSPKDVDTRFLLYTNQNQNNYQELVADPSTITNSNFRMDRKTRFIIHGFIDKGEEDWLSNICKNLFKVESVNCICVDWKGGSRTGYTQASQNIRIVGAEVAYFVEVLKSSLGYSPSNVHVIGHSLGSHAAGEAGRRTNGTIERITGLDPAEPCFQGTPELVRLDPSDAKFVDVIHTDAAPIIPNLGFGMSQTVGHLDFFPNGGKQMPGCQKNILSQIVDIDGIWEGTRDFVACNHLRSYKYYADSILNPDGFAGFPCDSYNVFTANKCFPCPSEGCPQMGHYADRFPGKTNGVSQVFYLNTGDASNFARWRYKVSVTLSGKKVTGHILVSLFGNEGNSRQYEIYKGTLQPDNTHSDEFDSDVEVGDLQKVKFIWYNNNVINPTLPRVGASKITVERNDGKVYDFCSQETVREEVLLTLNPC
Method: as §1, §2, §3

[4] = Oil binding assay with olive oil and food-coloured water; assay type: physicochemical; conditions: for oil binding, observation: olive oil/substance 1.5/1 ratio by weight, then 4 mL of water with food coloring
Method: Oil binding assay were performed using each of Compounds A and B using the procedures essentially as follows.
Six controls were obtained by adding Star Brand Olive Oil (extra virgin light colored olive oil) to 4 or 7 mL sample bottles, which were photographed at a distance of 10 inches by using an IZONE POLAROID camera as follows.
For comparison with Control 4 (oil/chitosan 1.5/1 ratio) each of Compounds A and B were mixed with oil in the same ratio(oil/compound 1.5/1 ratio, green food coloring was added to the aqueous portion of the compound A sample bottle and blue food coloring was added to the aqueous portion of the compound B sample bottle).
For comparison with Control 6 (oil/chitosan 8:1 ratio and 1 mL of aqueous solution with food coloring), compound B was added to 8 times its weight of oil and stirred to a uniform consistency. The 1 mL of water was added and 5 drops of red food coloring were added.

Row | Compound | share of the fat eaten at a given meal that is not absorbed [1] | percent inhibition with respect to the control [2] | percent inhibition with respect to the control [3] | oil binding, observation [4] | water absorbed after binding oil ([4]; olive oil/compound 8:1, 1 mL of water) | tightness of oil binding compared with chitosan and compound A ([4]; olive oil/substance 1.5/1 ratio) | oil binding and water uptake, observation ([4]; olive oil/substance 8:1 ratio by weight, then 1 mL of water and 5 drops of red food coloring)
1 | CCCCCCCCCCC[C@@H](C[C@@H]1OC(=O)[C@H]1CCCCCC)OC(=O)[C@H](CC(C)C)NC=O [Orlistat, (2S,3S,5S)-5-[(S)-2-formamido-4-methyl-valeryloxy]-2-hexyl-3-hydroxy-hexadecanoic 1,3 acid lactone] | up to one-third |  |  |  |  |  | 
2 | 2S, 3S, 4S [2-{(hexanoic acid modified chitosan 6-hexanoylamido}-4-methylvaleryloxy]-2-hexyl-hexadecanoic 1,3-lactone [Compound A] |  | about 50% | about 50% | oil is bound tightly at the bottom of the bottle and there is substantially no floating oil |  |  | 
3 | 4-[{(hexanoic acid modified chitosan 6-hexanoyloxy}-2-hexyl-hexadecanoic 1,3-lactone [Compound B] |  | about 50% | about 50% | oil is bound tightly at the bottom of the bottle and there is substantially no floating oil | at least its weight in water | appeared to perhaps bind the oil more tightly than either chitosan or compound A | uniformly absorbed the 1 mL of aqueous food coloring solution to form a homogenous layer which was present even after 24 hours
